Paper PMC10874388, “Cyclic peptides discriminate BCL-2 and its clinical mutants from BCL-XL by engaging a single-residue discrepancy” (Nature Communications, 2024)
Values joined by “and” are separate entries in the source; they are usually repeats but may differ in a detail not shown here. Equal values may be shown once.

Legend:
Format in all cases: cell-based
[1] = test system: A549 cells overexpressing BCL-2 G101V; assay: Cell viability assay, A549 stably overexpressing BCL-2 G101V; conditions: for luminescence reading (raw, replicate wells) / luminescence reading, everage / inhibition rate: BCL2/G101V A549; for luminescence reading, everage: mean of 6 wells
Procedure: Cell viability was measured using CellTiter-Glo® 2.0 Reagent (Promega, G9242). […] After different inhibitors were added into serum-free medium and cultured for 4 h (RS4:11 for 6 h), FBS were supplemented to 10% and then incubated totally for 24 h or 48 h. Finally, the IC50 values were calculated based on measurements using a microplate reader (Thermo, Varioskan LUX). Statistical analysis was performed using software GraphPad Prism 7.0.
Lentivirus packaging vectors pMDLg/pRRE, pRSV-Rev, and pVSV-G were obtained from Prof. Han Jiahuai’s lab (Xiamen University). Lentiviruses were produced using 3rd-generation lentivirus packaging plasmids transiently transfected into HEK293T cells with the constructs of interest using 0.25 M CaCl2. Media was changed after 16 h, and supernatants containing infectious virus particles were harvested 24 h later. A second viral harvest was made following a further 24 h incubation with fresh media. Virus containing supernatant was filtered through a […], and stored at 4 °C or −80 °C until being used. Typically, A549 cells were seeded into 10 cm cell culture dishes at 4 ~ 8 × 10^5 cells/cm^2. An equivalent volume of virus containing culture medium was added along with polybrene (Sigma) to a final concentration of 10 µg/mL. Cells were incubated at 37 °C for 20 h, before they were washed and resuspended in fresh culture media. The expression level of BCL-2 was measured by qPCR and western blot methods.

Daudi cells = assay: Cell viability assay (CellTiter-Glo), Daudi; conditions: for IC50: 48 h treatment, CellTiter-Glo; for inhibition relative to 0 uM control, replicates / raw viability signal, replicates: listed as ABT199
How it was run: (§1)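 Compounds added in serum-free medium for 4 h (RS4:11: 6 h), then FBS brought to 10% and incubation continued to 24 h or 48 h total at 37 °C, 5% CO2. Viability by CellTiter-Glo 2.0 luminescence; IC50 calculated.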

RS4:11 cells = assay: Cell viability assay (CellTiter-Glo), RS4:11; conditions: for raw luminescence reading / inhibition rate: RS4:11; for raw luminescence reading: listed as ABT199
How it was run: as §1

With `CC1(C)CCC(CN2CCN(c3ccc(C(=O)NS(=O)(=O)c4ccc(NCC5CCOCC5)c([N+](=O)[O-])c4)c(Oc4cnc5[nH]ccc5c4)c3)CC2)=C(c2ccc(Cl)cc2)C1` [venetoclax] the “luminescence reading (raw, replicate wells)” value ([1]; ABT-199 6.25 uM) was 262900 and 273800 and 273900 and 296400 and 264200 and 315700, the “luminescence reading, everage” value ([1]; ABT-199 6.25 uM) was 281150 and the inhibition rate ([1]; ABT-199 6.25 uM, replicate wells) was 51% and 48%. For the same molecule, the “luminescence reading (raw, replicate wells)” value ([1]; ABT-199 12.5 uM) was 184500 and 179700 and 182600 and 196200 and 190700 and 205800, the “luminescence reading, everage” value ([1]; ABT-199 12.5 uM) was 189917 and the inhibition rate ([1]; ABT-199 12.5 uM, replicate wells) was 68% and 69% and 66%. For the same molecule, the “luminescence reading (raw, replicate wells)” value ([1]; ABT-199 25 uM) was 98970 and 101200 and 102400 and 107200 and 99210 and 118800, the “luminescence reading, everage” value ([1]; ABT-199 25 uM) was 104630 and the inhibition rate ([1]; ABT-199 25 uM, replicate wells) was 83% and 82% and 80%. For the same molecule, the “luminescence reading (raw, replicate wells)” value ([1]; ABT-199 50 uM) was 50230 and 51420 and 49850 and 51590 and 53640 and 55790, the “luminescence reading, everage” value ([1]; ABT-199 50 uM) was 52087 and the inhibition rate ([1]; ABT-199 50 uM, replicate wells) was 91%. For the same molecule, the “luminescence reading (raw, replicate wells)” value ([1]; ABT-199 100 uM) was 16880 and 17260 and 16270 and 16910 and 17660 and 17950, the “luminescence reading, everage” value ([1]; ABT-199 100 uM) was 17155 and the “luminescence reading (raw, replicate wells)” value ([1]; ABT-199 200 uM) was 5500 and 6087 and 6493 and 5130 and 5793 and 6329. The “luminescence reading, everage” value ([1]; ABT-199 200 uM) was 5889, the inhibition at 1.5625 µM ([1]; Homo sapiens, A549, BCL2/G101V A549, ABT-199 1.5625 uM, replicate wells, read-out: inhibition rate) was 35% and the inhibition at 3.125 µM ([1]; Homo sapiens, A549, BCL2/G101V A549, ABT-199 3.125 uM, replicate wells, read-out: inhibition rate) was 55%. For the same molecule, the inhibition at 6.25 µM ([1]; Homo sapiens, A549, BCL2/G101V A549, ABT-199 6.25 uM, replicate wells, read-out: inhibition rate) was 57%, the inhibition at 12.5 µM ([1]; Homo sapiens, A549, BCL2/G101V A549, ABT-199 12.5 uM, replicate wells, read-out: inhibition rate) was 70% and the inhibition at 25 µM ([1]; Homo sapiens, A549, BCL2/G101V A549, ABT-199 25 uM, replicate wells, read-out: inhibition rate) was 84%. It also gave an inhibition at 50 µM ([1]; Homo sapiens, A549, BCL2/G101V A549, ABT-199 50 uM, replicate wells, read-out: inhibition rate) of 92%, an inhibition at 100 µM ([1]; Homo sapiens, A549, BCL2/G101V A549, ABT-199 100 uM, replicate wells, read-out: inhibition rate) of 97% and an inhibition at 200 µM ([1]; Homo sapiens, A549, BCL2/G101V A549, ABT-199 200 uM, replicate wells, read-out: inhibition rate) of 99%. The IC50 ([1]; Homo sapiens, A549, 48 h, CellTiter-Glo, n = 6) was 4.1 ± 0.3 µM, the IC50 (Daudi cells) was 9.1 ± 0.4 µM and the “inhibition relative to 0 uM control, replicates” value (Daudi cells; Daudi, 0.78125 uM) was -8% and 9% and -10% and 0.517% and -5.68% and 2.67%. For the same molecule, the “raw viability signal, replicates” value (Daudi cells; Daudi, 0.78125 uM) was 1603 and 1350 and 1637 and 1476 and 1568 and 1444, the “inhibition relative to 0 uM control, replicates” value (Daudi cells; Daudi, 1.5625 uM) was 2.61% and -1.71% and 13% and -2.52% and -11% and 4.63% and the “raw viability signal, replicates” value (Daudi cells; Daudi, 1.5625 uM) was 1445 and 1509 and 1291 and 1521 and 1645 and 1415. The “inhibition relative to 0 uM control, replicates” value (Daudi cells; Daudi, 3.125 uM) was 2% and 16% (2×) and 13% and 9% and 19%, the “raw viability signal, replicates” value (Daudi cells; Daudi, 3.125 uM) was 1454 and 1252 and 1287 and 1241 and 1349 and 1200 and the “inhibition relative to 0 uM control, replicates” value (Daudi cells; Daudi, 6.25 uM) was 29% and 42% and 9% and 30% and 46% and 26%. For the same molecule, the “raw viability signal, replicates” value (Daudi cells; Daudi, 6.25 uM) was 1056 and 861.7 and 1353 and 1036 and 800.8 and 1094, the “inhibition relative to 0 uM control, replicates” value (Daudi cells; Daudi, 12.5 uM) was 77% and 57% and 48% and 71% and 73% and 72% and the “raw viability signal, replicates” value (Daudi cells; Daudi, 12.5 uM) was 335.5 and 640.9 and 766.9 and 436.4 and 400.1 and 410.0. For the same molecule, the “inhibition relative to 0 uM control, replicates” value (Daudi cells; Daudi, 25 uM) was 93% (2×) and 70% and 85% and 88% and 97%, the “raw viability signal, replicates” value (Daudi cells; Daudi, 25 uM) was 106.6 and 104.3 and 439.1 and 228.2 and 183.6 and 51.32 and the IC50 (Daudi cells; Homo sapiens, Daudi, 48 h) was 9.12 µM. It also gave an inhibition at 0.000390625 µM (RS4:11 cells; Homo sapiens, RS4-11, RS4:11, 0.390625 nM, single wells, read-out: inhibition rate) of 27%, an inhibition at 0.00078125 µM (RS4:11 cells; Homo sapiens, RS4-11, RS4:11, 0.78125 nM, single wells, read-out: inhibition rate) of 67% and an inhibition at 0.0015625 µM (RS4:11 cells; Homo sapiens, RS4-11, RS4:11, 1.5625 nM, single wells, read-out: inhibition rate) of 95%. It also gave an inhibition at 0.003125 µM (RS4:11 cells; Homo sapiens, RS4-11, RS4:11, 3.125 nM, single wells, read-out: inhibition rate) of 98%, an inhibition at 0.00625 µM (RS4:11 cells; Homo sapiens, RS4-11, RS4:11, 6.25 nM, single wells, read-out: inhibition rate) of 100% and an inhibition at 0.0125 µM (RS4:11 cells; Homo sapiens, RS4-11, RS4:11, 12.5 nM, single wells, read-out: inhibition rate) of 100%. It also gave an inhibition at 0.025 µM (RS4:11 cells; Homo sapiens, RS4-11, RS4:11, 25 nM, single wells, read-out: inhibition rate) of 100%, an inhibition at 0.05 µM (RS4:11 cells; Homo sapiens, RS4-11, RS4:11, 50 nM, single wells, read-out: inhibition rate) of 100% and an inhibition at 0.1 µM (RS4:11 cells; Homo sapiens, RS4-11, RS4:11, 100 nM, single wells, read-out: inhibition rate) of 100%. The inhibition at 0.2 µM (RS4:11 cells; Homo sapiens, RS4-11, RS4:11, 200 nM, single wells, read-out: inhibition rate) was 100%, the IC50 (RS4:11 cells; Homo sapiens, RS4-11, 48 h treatment, CellTiter-Glo, small-molecule inhibitors, cells marked (nM)) was 0.5 ± 0.1 nM and the raw luminescence reading (RS4:11 cells; 0.012207 nM, single wells) was 473100 and 440900 and 421900 and 464800 and 440500 and 404600. The raw luminescence reading (RS4:11 cells; 0.0244141 nM, single wells) was 468000 and 467900 and 427500 and 463600 and 451400 and 411500, the raw luminescence reading (RS4:11 cells; 0.0488281 nM, single wells) was 464300 and 463300 and 420200 and 448100 and 441000 and 405800 and the raw luminescence reading (RS4:11 cells; 0.0976562 nM, single wells) was 446400 and 453400 and 406000 and 426100 and 420400 and 382600. The raw luminescence reading (RS4:11 cells; 0.195312 nM, single wells) was 418900 and 420900 and 384800 and 390800 and 394900 and 350200, the raw luminescence reading (RS4:11 cells; 0.390625 nM, single wells) was 317400 and 330800 and 297800 and 297300 and 296900 and 256100 and the inhibition rate (RS4:11 cells; 0.390625 nM, single wells, listed as ABT199, 0.000390625 µM) was 24% and 32% and 41%. For the same molecule, the raw luminescence reading (RS4:11 cells; 0.78125 nM, single wells) was 141300 and 149000 and 125700 and 134100 and 136000 and 117900, the inhibition rate (RS4:11 cells; 0.78125 nM, single wells, listed as ABT199, 0.00078125 µM) was 66% and 71% and 69% and 73% and the raw luminescence reading (RS4:11 cells; 1.5625 nM, single wells) was 23070 and 25650 and 25890 and 29130 and 27640 and 29210. The inhibition rate (RS4:11 cells; 1.5625 nM, single wells, listed as ABT199, 0.0015625 µM) was 94% and 93%, the raw luminescence reading (RS4:11 cells; 3.125 nM, single wells) was 9731 and 10360 and 11130 and 12480 and 11890 and 12850 and the inhibition rate (RS4:11 cells; 3.125 nM, single wells, listed as ABT199, 0.003125 µM) was 97%. The raw luminescence reading (RS4:11 cells; 6.25 nM, single wells) was 514.1 and 705.1 and 803.0 and 736.8 and 691.7 and 772.7, the raw luminescence reading (RS4:11 cells; 12.5 nM, single wells) was 355.5 and 246.5 and 256.3 and 381.9 and 264.2 and 272.2 and the raw luminescence reading (RS4:11 cells; 25 nM, single wells) was 183.0 and 151.3 and 145.9 and 222.1 and 185.6 and 197.7. For the same molecule, the raw luminescence reading (RS4:11 cells; 50 nM, single wells) was 222.3 and 165.6 and 152.2 and 216.6 and 173.6 and 195.6.
